# Measured values taken from ChEMBL document CHEMBL1681741, “SAR studies on dihydropyrimidinone antibiotics” (Bioorg Med Chem Lett, 2011).
# pIC50: −log10 of the molar value.
# Columns and labels:
# [1] = system: Staphylococcus aureus; assay: Antimicrobial activity against methicillin-resistant Staphylococcus aureus by NCCLS method; assay type: functional
# [2] = system: Escherichia coli; assay: Inhibition of protein translation in Escherichia coli S30 cell extract; assay type: functional
# [3] = Inhibition of protein translation in rabbit reticulocytes; assay type: functional, cell-based, Oryctolagus cuniculus
# [4] = Selectivity index, ratio of IC50 for protein translation inhibition in Escherichia coli S30 cell extract to IC50 for protein translation inhibition in rabbit reticulocytes; assay type: functional
# [5] = system: Staphylococcus aureus; assay: Antimicrobial activity against methicillin-resistant Staphylococcus aureus in iv dosed mouse septicemia model; assay type: functional; conditions: read-out: PD50
# [6] = system: Staphylococcus aureus; assay: Antimicrobial activity against methicillin-resistant Staphylococcus aureus in mouse septicemia model; assay type: functional
SMILES,MIC [1],pIC50 [2],pIC50 [3],Selectivity ratio [4],ED50 [5],MIC [6]
CN(C(=O)C[C@@H](N)C[C@@H]1CCNC1)C1CNC(NC(N)=O)=NC1=O (mixture of isomers),128 µg/mL,5.41,5.47,0.9,–,–
CN(C(=O)C[C@@H](N)CC1CCNCC1)C1CNC(NC(N)=O)=NC1=O (mixture of isomers),64 µg/mL,5.18,5.18,1,–,–
CN1C(=O)C(N(C)C(=O)C[C@@H](N)CCCNC(=N)N)CN=C1NC(N)=O (mixture of isomers),> 500 µg/mL,< 3.30,< 3.30,–,–,–
CN1CC(N(C)C(=O)C[C@@H](N)CCCNC(=N)N)C(=O)N=C1NC(N)=O (mixture of isomers),> 500 µg/mL,< 3.30,< 3.30,–,–,–
CC(=O)NC1=NC(=O)C(N(C)C(=O)C[C@@H](N)CCCNC(=N)N)CN1 (mixture of isomers),8 µg/mL,7.00,6.70,2,–,–
C/N=C(/N)NCCC[C@H](N)CC(=O)N(C)C1CN=C(NC(N)=O)NC1=O (mixture of isomers),8 µg/mL,6.70,5.89,6.5,3.3 mg/kg,32 µg/mL
CCC(=O)NC1=NC(=O)C(N(C)C(=O)C[C@@H](N)CCCNC(=N)N)CN1 (mixture of isomers),16 µg/mL,> 5.30,> 5.30,–,–,–
CN(C(=O)C[C@H](CCCCN)NC=O)C1CNC(NC(N)=O)=NC1=O (mixture of isomers),> 500 µg/mL,< 3.30,< 3.30,–,–,–
CN(C(=O)C[C@@H](N)CCCNC(=N)N)c1ccc(NC(N)=O)[nH]c1=O (mixture of isomers),> 500 µg/mL,< 3.30,4.25,–,–,–
CN(C)C(=N)NCCC[C@H](N)CC(=O)N(C)C1CNC(NC(N)=O)=NC1=O (mixture of isomers),64 µg/mL,5.38,4.69,4.9,–,–
CN(C(=O)C[C@@H](N)CCCNC(=N)N)C1CNC(N2CCNC2=O)=NC1=O (mixture of isomers),> 500 µg/mL,< 3.30,< 3.30,–,–,–
CN(CC1CNC(NC(N)=O)=NC1=O)C(=O)C[C@@H](N)CCCNC(=N)N (mixture of isomers),> 500 µg/mL,4.29,4.25,1.1,–,–
CN(C(=O)C[C@@H](N)CCCN/C(N)=N\O)C1CNC(NC(N)=O)=NC1=O (mixture of isomers),64 µg/mL,5.09,4.63,2.8,–,–
CN(C)C(=O)NC1=NC(=O)C(N(C)C(=O)C[C@@H](N)CCCNC(=N)N)CN1 (mixture of isomers),> 500 µg/mL,5.06,4.71,3.4,–,–
CN[C@H](CC(C)C)C(=O)N[C@H]1C(=O)N[C@@H](CC(N)=O)C(=O)N[C@H]2C(=O)N[C@H]3C(=O)N[C@H](C(=O)N[C@H](C(=O)O)c4cc(O)cc(O)c4-c4cc3ccc4O)[C@H](O)c3ccc(c(Cl)c3)Oc3cc2cc(c3O[C@@H]2O[C@H](CO)[C@@H](O)[C@H](O)[C@H]2O[C@H]2C[C@](C)(N)[C@H](O)[C@H](C)O2)Oc2ccc(cc2Cl)[C@H]1O [VANCOMYCIN],–,–,–,–,9.6 mg/kg,0.8 µg/mL
CN(C(=O)C[C@@H](N)C[C@H]1CCNC1)C1CNC(NC(N)=O)=NC1=O (mixture of isomers),64 µg/mL,5.70,6.22,0.3,–,–
C/N=C(/NC)NCCC[C@H](N)CC(=O)N(C)C1CNC(NC(N)=O)=NC1=O (mixture of isomers),256 µg/mL,5.89,4.58,20,–,–
CN(C(=O)C[C@@H](N)CCCCCN)C1CNC(NC(N)=O)=NC1=O (mixture of isomers),16 µg/mL,5.30,5.00,2,–,–
CC(=O)NC1=CC(=O)C(N(C)C(=O)C[C@@H](N)CCCNC(=N)N)CN1 (mixture of isomers),> 500 µg/mL,< 3.30,< 3.30,–,–,–

SMILES,MIC [1],pIC50 [2],pIC50 [3],Selectivity ratio [4],ED50 [5],MIC [6]
CN(C(=O)C[C@@H](N)CCCNC(N)=O)C1CNC(NC(N)=O)=NC1=O (mixture of isomers),> 500 µg/mL,< 3.30,< 3.30,–,–,–
C/N=C(/N)N1CCC(C[C@H](N)CC(=O)N(C)C2CNC(NC(N)=O)=NC2=O)CC1 (mixture of isomers),64 µg/mL,5.44,4.28,14.7,–,–
CN(C(=O)C[C@@H](N)CCCNC(=N)N)C1CN=C(NC(N)=O)NC1 (mixture of isomers),> 256 µg/mL,3.92,–,–,–,–
CN(C(=O)C[C@@H](N)C[C@H]1CCN(C(=N)N)C1)C1CNC(NC(N)=O)=NC1=O (mixture of isomers),8 µg/mL,6.77,6.35,2.6,1.5 mg/kg,16 µg/mL
CN(C(=O)C[C@@H](N)CCCCN)C1CN=C(NC(N)=O)NC1=O (mixture of isomers),64 µg/mL,5.19,4.40,6,–,–
CN(C(=O)C[C@@H](N)CC1CCN(C(=N)N)CC1)C1CNC(NC(N)=O)=NC1=O (mixture of isomers),16 µg/mL,6.96,6.12,6.8,2.4 mg/kg,16 µg/mL
CN(C(=O)C[C@@H](N)c1cccc(NC(=N)N)c1)C1CNC(NC(N)=O)=NC1=O (mixture of isomers),256 µg/mL,6.82,5.72,10,–,–
CC/N=C(/N)NCCC[C@H](N)CC(=O)N(C)C1CN=C(NC(N)=O)NC1=O (mixture of isomers),> 256 µg/mL,5.62,4.56,–,–,–
CN(C(=O)C[C@@H](N)CCC(=O)NC(=N)N)C1CNC(NC(N)=O)=NC1=O (mixture of isomers),> 500 µg/mL,3.65,5.15,0.03,–,–
CC(=O)N(C)C1=NC(=O)C(N(C)C(=O)C[C@@H](N)CCCNC(=N)N)CN1 (mixture of isomers),64 µg/mL,5.17,4.68,3.1,–,–
CN(C(=O)C[C@@H](N)CCCN1CCNC1=N)C1CNC(NC(N)=O)=NC1=O (mixture of isomers),128 µg/mL,5.38,4.46,8.3,–,–
CN(C(=O)C[C@@H](N)CCCN)C1CN=C(NC(N)=O)NC1=O (mixture of isomers),64 µg/mL,5.05,> 5.30,<0.6,–,–
CC(=O)NC(=N)NCCC[C@H](N)CC(=O)N(C)C1CNC(NC(N)=O)=NC1=O (mixture of isomers),> 256 µg/mL,3.97,–,–,–,–
CN(C(=O)C[C@@H](N)Cc1ccc(C(=N)N)cc1)C1CNC(NC(N)=O)=NC1=O (mixture of isomers),512 µg/mL,6.29,4.91,8.2,–,–
CN(C(=O)C[C@@H](N)C1CCN(C(=N)N)CC1)C1CNC(NC(N)=O)=NC1=O (mixture of isomers),16 µg/mL,6.74,6.64,1.3,–,–
CN(C(=O)C[C@@H](N)CCCN=C(N)N)C1CN=C(NC(N)=O)NC1=O (mixture of isomers),8 µg/mL,–,6.70,0.67,0.7 mg/kg,12.8 µg/mL
CCN(C(=O)C[C@@H](N)CCCNC(=N)N)C1CNC(NC(N)=O)=NC1=O (mixture of isomers),256 µg/mL,5.74,4.35,25,–,–
CN[C@@H](CCCCN)CC(=O)N(C)C1CNC(NC(N)=O)=NC1=O (mixture of isomers),128 µg/mL,4.60,5.30,0.2,–,–
